Read-outs that look alike come from different tables or passages of the source.
Tests used:
[1] = system: VV; test: microbe, parasite or virus in culture; type: cell-based, vaccinia virus
[2] = system: mD4-VV surrogate virus; test: microbe, parasite or virus in culture; type: cell-based, mD4/vaccinia hybrid virus; settings: Hybrid virus, BSC-1, read-out: mD4 EC50
[3] = target: E9/A20/D4 proteins (molluscum mD4) (Molluscum contagiosum virus, UniProt Q98260); test: biochemical
[4] = Orthopoxvirus vaccinia, BSC-1, read-out: VV EC50

Sequence of E9/A20/D4 proteins (molluscum mD4) (Q98260 1-226): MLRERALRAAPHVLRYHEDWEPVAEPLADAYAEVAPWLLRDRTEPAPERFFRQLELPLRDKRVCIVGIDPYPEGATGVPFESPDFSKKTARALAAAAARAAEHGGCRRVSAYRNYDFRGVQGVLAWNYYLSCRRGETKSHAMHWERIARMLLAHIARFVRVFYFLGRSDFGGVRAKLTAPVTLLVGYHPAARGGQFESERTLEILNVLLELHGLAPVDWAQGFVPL

Row | SMILES | EC50 [1, 4] [µM] | further results
1 | CCOC(=O)c1c(NC(=O)C(CC)c2ccccc2)sc(C)c1CC (stereo not drawn) [Compound 2, ethyl 4-ethyl-5-methyl-2-(2-phenylbutanamido)thiophene-3-carboxylate] | 36.6 | –
2 | CCOC(=O)c1c(NC(=O)C2CCCCC2)sc(C(N)=O)c1C [Compound 4, ethyl 5-carbamoyl-2-(cyclohexanecarboxamido)-4-methylthiophene-3-carboxylate] | 48.9 | –
3 | CCOC(=O)c1c(NC(=O)C(CC)c2ccccc2)sc(C(=O)N(C)C)c1C (stereo not drawn) [Compound 5, ethyl 5-(dimethylcarbamoyl)-4-methyl-2-(2-phenylbutanamido)thiophene-3-carboxylate] | 29.7 | –
4 | CCOC(=O)c1c(NC(=O)C(CC)c2ccccc2)sc(C(N)=O)c1C (stereo not drawn) [Compound 8, ethyl 5-carbamoyl-4-methyl-2-(2-phenylbutanamido)thiophene-3-carboxylate] | 10.3 | –
5 | CCC(C(=O)Nc1sc(C(N)=O)c(C)c1C#N)c1ccccc1 (stereo not drawn) [Compound 9, 4-cyano-3-methyl-5-(2-phenylbutanamido)thiophene-2-carboxamide] | 11.3 | –
6 | CC[C@H](C(=O)Nc1sc(C(N)=O)c(C)c1C(=O)OC)c1ccccc1 [Compound 15, methyl (S)-5-carbamoyl-4-methyl-2-(2-phenylbutanamido)thiophene-3-carboxylate] | 17.9 | –
7 | CC[C@@H](C(=O)Nc1sc(C(N)=O)c(C)c1C(=O)OC)c1ccccc1 [Compound 16, methyl (R)-5-carbamoyl-4-methyl-2-(2-phenylbutanamido)thiophene-3-carboxylate] | 16.4 | –
8 | CC[C@@H](C(=O)Nc1sc(C(N)=O)c(C)c1C(=O)OC)c1ccccc1 [Compound 17, methyl (R)-5-carbamoyl-4-methyl-2-(2-phenylbutanamido)thiophene-3-carboxylate] | – | EC50 ([1]; read-out: VV EC50): 26.8 µM
9 | CCOC(=O)c1sc(NC(=O)C(CC)c2ccccc2)c(C(N)=O)c1C (stereo not drawn) [Compound 19, ethyl 4-carbamoyl-3-methyl-5-(2-phenylbutanamido)thiophene-2-carboxylate] | 31.3 | –
10 | CCC(C(=O)Nc1cc(C)c(C(=O)OC)s1)c1ccccc1 (stereo not drawn) [Compound 22, 3-Methyl-5-(2-phenyl-butyrylamino)-thiophene-2-carboxylic acid methyl ester] | 26.8 | –
11 | CCC(C(=O)Nc1sc(C(=O)N(CC)CC)c(C)c1C(=O)OC)c1ccccc1 (stereo not drawn) [Compound 24, methyl 5-(diethylcarbamoyl)-4-methyl-2-(2-phenylbutanamido)thiophene-3-carboxylate] | 16.4 | –
12 | CCC(C(=O)Nc1sc(C)c(C)c1C(=O)OC)c1ccccc1 (stereo not drawn) [Compound 26, methyl 4,5-dimethyl-2-(2-phenylbutanamido)thiophene-3-carboxylate] | 45.3 | –
13 | CCC(C(=O)Nc1sccc1C(N)=O)c1ccccc1 (stereo not drawn) [Compound 31, 2-(2-phenylbutanamido)thiophene-3-carboxamide] | 49.7 | –
14 | CCC(C(=O)Nc1scc(C)c1C(=O)OC)c1ccccc1 (stereo not drawn) [Compound 32, 4-Methyl-2-(2-phenyl-butyrylamino)-thiophene-3-carboxylic acid methyl ester] | 32.9 | –
15 | COC(=O)c1c(NC(=O)C(Cc2ccccc2)N2C(=O)c3ccccc3C2=O)sc(C(N)=O)c1C (stereo not drawn) [Compound 33, 5-Carbamoyl-2-[2-(1,3-dioxo-1,3-dihydro-isoindol-2-yl)-3-phenyl-propionylamino]-4-methyl-thiophene-3-carboxylic acid methyl ester] | 43.6 | –
16 | CCC(C(=O)Nc1cc(C)cs1)c1ccccc1 (stereo not drawn) [Compound 34, N-(4-methyl-thiophen-2-yl)-2-phenyl-butyramide] | 46.7 | –
17 | COC(=O)c1c(NC(=O)C2CCc3ccccc32)sc(C(N)=O)c1C (stereo not drawn) [Compound 35, 5-Carbamoyl-2-[(indane-1-carbonyl)-amino]-4-methyl-thiophene-3-carboxylic acid methyl ester] | 20.4 | –
18 | COC(=O)c1c(NC(=O)C2(c3ccccc3)CC2)sc(C(N)=O)c1C [Compound 36, 5-Carbamoyl-4-methyl-2-[(1-phenyl-cyclopropanecarbonyl)-amino]-thiophene-3-carboxylic acid methyl ester] | 14.3 | –
19 | CCC(C(=O)N(C(=O)C(CC)c1ccccc1)c1sc(C)c(C)c1C#N)c1ccccc1 (stereo not drawn) [Compound 39, N-(3-Cyano-4,5-dimethyl-thiophen-2-yl)-2-phenyl-N-(2-phenyl-butyryl)-butyramide] | 11 | –
20 | Cc1c(C(N)=O)sc(NC(=O)C2CCCC2)c1C#N [Compound 40, 4-cyano-5-(cyclopentanecarboxamido)-3-methylthiophene-2-carboxamide] | 47.4 | –
21 | Cc1c(C(N)=O)sc(N(C(=O)C2CCCc3ccccc32)C(=O)C2CCCc3ccccc32)c1C#N (stereo not drawn) [Compound 47, 5-[Bis-(1,2,3,4-tetrahydro-naphthalene-1-carbonyl)-amino]-4-cyano-3-methyl-thiophene-2-carboxylic acid amide] | 20 | –
22 | Cc1c(C(N)=O)sc(NC(=O)C2CCc3cc(Cl)ccc32)c1C#N (stereo not drawn) [Compound 50, 5-[(5-Chloro-indane-1-carbonyl)-amino]-4-cyano-3-methyl-thiophene-2-carboxylic acid amide] | 33 | –

Row | SMILES | EC50 [1, 4] [µM] | further results
23 | COc1ccc(CN(Cc2ccc(OC)cc2)C(Cc2ccccc2)C(=O)Nc2sc(C(N)=O)c(C)c2C#N)cc1 (stereo not drawn) [Compound 57, 5-(2-{Bis[(4-methoxyphenyl)methyl]amino}-3-phenylpropanamido)-4-cyano-3-methylthiophene-2-carboxamide] | 20.8 | –
24 | CCC(C(=O)Nc1sc(C(=O)N(CC)CC)c(C)c1C#N)c1ccccc1 (stereo not drawn) [Compound 66, 4-cyano-N,N-diethyl-3-methyl-5-(2-phenylbutanamido)thiophene-2-carboxamide] | 42.2 | –
25 | CCC(C(=O)Nc1snc(C)c1C#N)c1ccccc1 (stereo not drawn) [Compound 68, N-(4-Cyano-3-methyl-isothiazol-5-yl)-2-phenyl-butyramide] | 8.6 | –
26 | CCOC(=O)c1sc(NC(=O)C(CC)c2ccccc2)cc1C (stereo not drawn) [Compound 72, ethyl 3-methyl-5-(2-phenylbutanamido)thiophene-2-carboxylate] | 19.1 | –
27 | CCC(C(=O)Nc1sc(C(N)=O)c(C)c1C#N)c1ccc([N+](=O)[O-])cc1 (stereo not drawn) [Compound 75, 5-(2-(4-Nitrophenyl)butanamido)-4-cyano-3-methylthiophene-2-carboxamide] | 35 | –
28 | CCC(C(=O)Nc1nc(-c2ccccc2)cs1)c1ccccc1 (stereo not drawn) [Compound 76, 2-phenyl-N-(4-phenylthiazol-2-yl)butanamide] | 18.4 | –
29 | CCC(C(=O)Nc1ncc(C(=O)OC)s1)c1ccccc1 (stereo not drawn) [Compound 77, methyl 2-(2-phenylbutanamido)thiazole-5-carboxylate] | 21.4 | –
30 | CCC(C(=O)Nc1cc(C)ns1)c1ccccc1 (stereo not drawn) [Compound 78, N-(3-methylisothiazol-5-yl)-2-phenylbutanamide] | 41.7 | –
31 | CCC(C(=O)Nc1sc(C(=O)OC)cc1C#N)c1ccccc1 (stereo not drawn) [Compound 82, Methyl 5-(2-phenylbutanamido)-4-cyanothiophene-2-carboxylate] | 11 | –
32 | O=C(NCc1ccc(Cl)cc1)c1nnsc1NC(=O)N1CCN(c2ccccc2)CC1 [Compound 84, N-(4-chlorobenzyl)-5-(4-phenylpiperazine-1-carboxamido)-1,2,3-thiadiazole-4-carboxamide] | 9.4 | EC50 [2]: 10 µM
33 | COc1ccc(N2CCN(C(=O)Nc3snnc3C(=O)NCc3ccc(Cl)cc3)CC2)cc1 [Compound 86, N-(4-chlorobenzyl)-5-(4-(4-methoxyphenyl)piperazine-1-carboxamido)-1,2,3-thiadiazole-4-carboxamide] | 32.6 | –
34 | Cc1nsc(NC(=O)C2CCc3ccccc32)c1C#N (stereo not drawn) [Compound 87, Indan-1-carboxylic acid (4-cyano-3-methyl-isothiazol-5-yl)-amide] | 17 | –
35 | CCC(C(=O)Nc1snc(C)c1C(=O)OC)c1ccccc1 (stereo not drawn) [Compound 89, 3-Methyl-5-(2-phenyl-butyrylamino)-isothiazole-4-carboxylic acid methyl ester] | 29.3 | –
36 | CCC(C(=O)Nc1sncc1C#N)c1ccccc1 (stereo not drawn) [Compound 90, N-(4-Cyano-isothiazol-5-yl)-2-phenyl-butyramide] | 21.8 | –
37 | CCC(C(=O)Nc1snnc1-c1ccc(C(F)(F)F)cc1)c1ccccc1 (stereo not drawn) [Compound 109, 2-Phenyl-N-[4-(4-trifluoromethyl-phenyl)-[1,2,3]thiadiazol-5-yl]-butyramide] | – | IC50 [3]: 68.6 µM; EC50 [2]: 0.8 µM
38 | CCC(C(=O)Nc1sccc1C(=O)NCc1ccc(Cl)cc1)c1ccccc1 (stereo not drawn) [Compound 110, 2-(2-Phenylbutanamido)-N-(4-chlorobenzyl)thiophene-3-carboxamide] | – | IC50 [3]: > 100 µM; EC50 [2]: 8 µM
39 | O=C(NCc1ccccc1)c1nnsc1NC(=O)N1CCN(c2ccccn2)CC1 [Compound 119, 4-Pyridin-2-yl-piperazine-1-carboxylic acid (4-benzylcarbamoyl-[1,2,3]thiadiazol-5-yl)-amide] | – | IC50 [3]: > 100 µM; EC50 [2]: 10.3 µM
40 | O=C(NCc1ccc(F)c(F)c1)c1ccsc1NC(=O)N1CCN(c2ccccn2)CC1 [Compound 159, N-(3-(3,4-Difluorobenzylcarbamoyl)thiophen-2-yl)-4-(pyridin-2-yl)piperazine-1-carboxamide] | – | IC50 [3]: 118 µM; EC50 [2]: 12.8 µM
41 | CCC(C(=O)Nc1sccc1C(=O)NCc1ccc(F)c(F)c1)c1ccccc1 (stereo not drawn) [Compound 160, 2-(2-Phenylbutanamido)-N-(3,4-difluorobenzyl)thiophene-3-carboxamide] | – | IC50 [3]: 128 µM; EC50 [2]: 10.6 µM
42 | CCC(C(=O)Nc1sccc1C(=O)NCc1ccccc1)c1ccccc1 (stereo not drawn) [Compound 161, 2-(2-Phenylbutanamido)-N-benzylthiophene-3-carboxamide] | – | IC50 [3]: 140 µM; EC50 [2]: 12 µM
43 | CCC(C(=O)Nc1scnc1C(=O)NCc1ccc(Cl)cc1)c1ccccc1 (stereo not drawn) [Compound 163, 5-(2-Phenylbutanamido)-N-(4-chlorobenzyl)thiazole-4-carboxamide] | – | IC50 [3]: > 100 µM; EC50 [2]: 12.1 µM
